Experimental data published in patent US9918964B2, “Reducing platelet activation, aggregation and platelet-stimulated thrombosis or blood coagulation by reducing mitochondrial respiration” (priority 2010, dated 2018).
Converted amounts (≈) assume the structure as drawn. “And” between values parts separate entries of the source, which are not always exact repeats. Identical values can stand only once. Like-named read-outs stand apart in the source and are kept apart here.

Tests used:
[1] = tested on: mitochondria isolated from liver of tilapia (Sarotheridon mossambica); assay type: biochemical
[2] = tested on: mitochondria isolated from liver of tilapia (Sarotheridon mossambica); assay type: biochemical; remark: listed apart in the source
platelets in whole blood = test: Platelet function testing with the Hemostasis Mechanism Analyzer (HMA): clumping, sticking, clotting in whole blood; assay type: cell-based, human; conditions: for activity at 700 µg/mL / activity at 1300 µg/mL / activity at 2700 µg/mL / activity at 5300 µg/mL / activity at 10700 µg/mL / activity at 670 µg/mL / activity at 3300 µg/mL / activity at 6700 µg/mL / activity at 11700 µg/mL / activity at 23300 µg/mL / activity at 5000 µg/mL: Homo sapiens, Platelet; for activity at 700 µg/mL: Dosage (mg/ml) 0.7; for activity at 1300 µg/mL: Dosage (mg/ml) 1.3; for activity at 2700 µg/mL: Dosage (mg/ml) 2.7; for activity at 5300 µg/mL: Dosage (mg/ml) 5.3; for activity at 10700 µg/mL: Dosage (mg/ml) 10.7; for activity at 11700 µg/mL: Dosage (mg/ml) 11.7; for activity at 23300 µg/mL: Dosage (mg/ml) 23.3; for activity at 5000 µg/mL: Dosage (mg/ml) 5
mitochondria = test: Hydrogen peroxide levels on mitochondrial inhibition (unpublished results)
Source text: Various experimental models of Parkinson's disease and other maladies have implicated mitochondrial dysfunction and excessive Reactive Oxygen Species (ROS) as possible contributors. Fortunately it is routine in the art to screen mitochondrial inhibitors or indeed any platelet inhibitor for hydrogen peroxide production in vitro, to select active agents that are suitable for long term administration as long as the production of hydrogen peroxide is not excessive.

[3] = in vitro whole blood assay, clumping, sticking, clotting
[4] = 0 dosage = 100, read-out: % clot time increase
[5] = 0 dosage = 100, read-out: % clump time increase
[6] = 0 dosage = 100, read-out: % stick time increase
[7] = read-out: % clump time increase
[8] = read-out: % stick time increase
[9] = Dosage (mg/ml) 3.3, 0 dosage = 100, read-out: % clot time increase
[10] = Dosage (mg/ml) 3.3, 0 dosage = 100, read-out: % clump time increase
[11] = Dosage (mg/ml) 3.3, 0 dosage = 100, read-out: % stick time increase
[12] = Dosage (mg/ml) 6.7, 0 dosage = 100, read-out: % clot time increase
[13] = Dosage (mg/ml) 6.7, 0 dosage = 100, read-out: % clump time increase
[14] = Dosage (mg/ml) 6.7, 0 dosage = 100, read-out: % stick time increase

Nc1nnn[nH]1 [Compound 34, 1H-tetrazol-5-amine]
Reversible? [1]: reversible and Yes
IC50 (mg/ml) mitochondria inhibition [2]: 8.5 mg/mL (≈ 99.9 mM)

Brc1nn[nH]c1Br [Compound 48, 4,5-dibromo-1H-triazole]
Reversible? [1]: reversible and Yes
activity in the platelet assays (active agent or inactive) (platelets in whole blood; [3]): met the criteria for active agents
IC50 (mg/ml) mitochondria inhibition [2]: 30 mg/mL (≈ 132 mM)

Cc1ncsc1CCOC(=O)C[P+](c1ccccc1)(c1ccccc1)c1ccccc1.[Br-] [Compound 49, [2-[2-(4-methylthiazol-5-yl)ethoxy]-2-oxo-ethyl]-triphenyl-phosphonium bromide]
Reversible? [1]: irreversible and No
activity in the platelet assays (active agent or inactive) (platelets in whole blood): significantly reduced platelet activity or aggregation
IC50 (mg/ml) mitochondria inhibition [2]: 8.8 mg/mL

Cc1cscn1 [Compound 75, 4-methylthiazole]
activity at 700 µg/mL (platelets in whole blood; [4]): 103%
activity at 700 µg/mL (platelets in whole blood; [5]): 115%
activity at 700 µg/mL (platelets in whole blood; [6]): 106%
activity at 1300 µg/mL (platelets in whole blood; [4]): 106%
activity at 1300 µg/mL (platelets in whole blood; [5]): 109%
activity at 1300 µg/mL (platelets in whole blood; [6]): 102%
activity at 2700 µg/mL (platelets in whole blood; [4]): 108%
activity at 2700 µg/mL (platelets in whole blood; [5]): 126%
activity at 2700 µg/mL (platelets in whole blood; [6]): 123%
activity at 5300 µg/mL (platelets in whole blood; [4]): 114%
activity at 5300 µg/mL (platelets in whole blood; [5]): 136%
activity at 5300 µg/mL (platelets in whole blood; [6]): 132%
activity at 10700 µg/mL (platelets in whole blood; [4]): 122%
activity at 10700 µg/mL (platelets in whole blood; [5]): 164%
activity at 10700 µg/mL (platelets in whole blood; [6]): 155%
IC50 (mg/ml) mitochondria inhibition [2]: 40.6 mg/mL (≈ 409 mM)

Cc1nnn[nH]1 [Compound 76, 5-methyl-1H-tetrazole]
activity at 670 µg/mL (platelets in whole blood; read-out: % clot time increase): 91%
activity at 3300 µg/mL (platelets in whole blood; read-out: % clot time increase): 120%
activity at 6700 µg/mL (platelets in whole blood; read-out: % clot time increase): 301%
activity at 670 µg/mL (platelets in whole blood; [7]): 129%
activity at 3300 µg/mL (platelets in whole blood; [7]): 209%
activity at 670 µg/mL (platelets in whole blood; [8]): 125%
activity at 3300 µg/mL (platelets in whole blood; [8]): 217%
activity at 6700 µg/mL (platelets in whole blood; [8]): 983%
IC50 (mg/ml) mitochondria inhibition [2]: 12.6 mg/mL (≈ 150 mM)

OCc1c[nH]c2ccccc12 [Compound 77, 1H-indol-3-ylmethanol]
activity at 700 µg/mL (platelets in whole blood; [4]): 102%
activity at 700 µg/mL (platelets in whole blood; [5]): 95%
activity at 700 µg/mL (platelets in whole blood; [6]): 92%
activity at 3300 µg/mL (platelets in whole blood; [9]): 104%
activity at 3300 µg/mL (platelets in whole blood; [10]): 81%
activity at 3300 µg/mL (platelets in whole blood; [11]): 86%
activity at 6700 µg/mL (platelets in whole blood; [12]): 105%
activity at 6700 µg/mL (platelets in whole blood; [13]): 109%
activity at 6700 µg/mL (platelets in whole blood; [14]): 97%
activity at 11700 µg/mL (platelets in whole blood; [4]): 108%
activity at 11700 µg/mL (platelets in whole blood; [5]): 116%
activity at 11700 µg/mL (platelets in whole blood; [6]): 114%
activity at 23300 µg/mL (platelets in whole blood; [4]): 126%
activity at 23300 µg/mL (platelets in whole blood; [5]): 140%
activity at 23300 µg/mL (platelets in whole blood; [6]): 100%
activity in the platelet assays (active agent or inactive) (platelets in whole blood; [3]): met the criteria for active agents
IC50 (mg/ml) mitochondria inhibition [2]: 82.8 mg/mL (≈ 563 mM)

CCOC(=O)Cc1nnn[nH]1 [Compound 80, ethyl 2-(1H-tetrazol-5-yl)acetate]
activity at 3300 µg/mL (platelets in whole blood; [9]): 110%
activity at 3300 µg/mL (platelets in whole blood; [10]): 107%
activity at 3300 µg/mL (platelets in whole blood; [11]): 104%
activity at 5000 µg/mL (platelets in whole blood; [4]): 121%
activity at 5000 µg/mL (platelets in whole blood; [5]): 143%
activity at 5000 µg/mL (platelets in whole blood; [6]): 141%
activity at 6700 µg/mL (platelets in whole blood; [12]): 133%
activity at 6700 µg/mL (platelets in whole blood; [13]): 207%
activity at 6700 µg/mL (platelets in whole blood; [14]): 209%
IC50 (mg/ml) mitochondria inhibition [2]: 100 mg/mL (≈ 640 mM)

c1cncnc1 [Compound 81, pyrimidine]
activity in the platelet assays (active agent or inactive) (platelets in whole blood; [3]): inactive
IC50 (mg/ml) mitochondria inhibition [2]: 51.5 mg/mL (≈ 643 mM)

O=C(O)Cc1nnn[nH]1 [Compound 82, 2-(1H-tetrazol-5-yl)acetic acid]
activity at 3300 µg/mL (platelets in whole blood; [9]): 137%
activity at 3300 µg/mL (platelets in whole blood; [10]): 240%
activity at 3300 µg/mL (platelets in whole blood; [11]): 222%
activity at 5000 µg/mL (platelets in whole blood; [4]): 217%
activity at 5000 µg/mL (platelets in whole blood; [5]): 755%
activity at 5000 µg/mL (platelets in whole blood; [6]): 601%
IC50 (mg/ml) mitochondria inhibition [2]: 11.8 mg/mL (≈ 92.1 mM)

CSc1nnn[nH]1 [Compound 83, 5-methylsulfanyl-1H-tetrazole]
Reversible? [1]: reversible and Yes
activity at 3300 µg/mL (platelets in whole blood; [9]): 127%
activity at 3300 µg/mL (platelets in whole blood; [10]): 167%
activity at 3300 µg/mL (platelets in whole blood; [11]): 157%
activity at 5000 µg/mL (platelets in whole blood; [4]): 191%
activity at 5000 µg/mL (platelets in whole blood; [5]): 584%
activity at 5000 µg/mL (platelets in whole blood; [6]): 512%
activity at 6700 µg/mL (platelets in whole blood; [12]): 297%
IC50 (mg/ml) mitochondria inhibition [2]: 14.5 mg/mL (≈ 125 mM)

Sc1ncc[nH]1 [Compound 84, 1H-imidazole-2-thiol]
activity at 6700 µg/mL (platelets in whole blood; [12]): 99%
activity at 6700 µg/mL (platelets in whole blood; [13]): 113%
activity at 6700 µg/mL (platelets in whole blood; [14]): 105%
activity at 11700 µg/mL (platelets in whole blood; [4]): 110%
activity at 11700 µg/mL (platelets in whole blood; [5]): 121%
activity at 11700 µg/mL (platelets in whole blood; [6]): 111%
activity at 23300 µg/mL (platelets in whole blood; [4]): 128%
activity at 23300 µg/mL (platelets in whole blood; [5]): 149%
activity at 23300 µg/mL (platelets in whole blood; [6]): 142%
activity in the platelet assays (active agent or inactive) (platelets in whole blood; [3]): met the criteria for active agents
IC50 (mg/ml) mitochondria inhibition [2]: 17.3 mg/mL (≈ 173 mM)

Cn1c(-c2ccccc2)c[nH]c1=S [Compound 91, 3-methyl-4-phenyl-1H-imidazole-2-thione]
activity in the platelet assays (active agent or inactive) (platelets in whole blood; [3]): inactive
IC50 (mg/ml) mitochondria inhibition [2]: 5.4 mg/mL (≈ 28.4 mM)

Cc1ncsc1C [Compound 92, 4,5-dimethylthiazole]
activity at 700 µg/mL (platelets in whole blood; [4]): 100%
activity at 700 µg/mL (platelets in whole blood; [5]): 112%
activity at 700 µg/mL (platelets in whole blood; [6]): 118%
activity at 3300 µg/mL (platelets in whole blood; [9]): 101%
activity at 3300 µg/mL (platelets in whole blood; [10]): 176%
activity at 3300 µg/mL (platelets in whole blood; [11]): 171%
activity at 6700 µg/mL (platelets in whole blood; [12]): 106%
activity at 6700 µg/mL (platelets in whole blood; [13]): 195%
activity at 6700 µg/mL (platelets in whole blood; [14]): 179%
activity at 11700 µg/mL (platelets in whole blood; [4]): 126%
activity at 11700 µg/mL (platelets in whole blood; [5]): 224%
activity at 11700 µg/mL (platelets in whole blood; [6]): 211%
activity at 23300 µg/mL (platelets in whole blood; [4]): 162%
activity at 23300 µg/mL (platelets in whole blood; [5]): 717%
activity at 23300 µg/mL (platelets in whole blood; [6]): 546%
IC50 (mg/ml) mitochondria inhibition [2]: 50.9 mg/mL (≈ 450 mM)

Cc1cncs1 [Compound 94, 5-methylthiazole]
Reversible? [1]: reversible and Yes
IC50 (mg/ml) mitochondria inhibition [2]: 23.5 mg/mL (≈ 237 mM)

Thiazole [Compound 47]
Reversible? [1]: reversible and Yes
activity in the platelet assays (active agent or inactive) (platelets in whole blood): inactive
IC50 (mg/ml) mitochondria inhibition [2]: 21.3 mg/mL

tetrazole [Compound 93]
Reversible? ([1]; reversible if respiration rate after removing the inhibitor returned to greater than 75% of its value in the absence of inhibitor): reversible and Yes
% clot time increase (platelets in whole blood): 150% and 128% and 114%
% clump time increase (platelets in whole blood): 211% and 194% and 116%
% stick time increase (platelets in whole blood): 193% and 173% and 116%
IC50 (mg/ml) mitochondria inhibition [2]: 31.5 mg/mL
hydrogen peroxide levels (mitochondria): elevated levels of hydrogen peroxide
